# From PubChem BioAssay AID179 (DTP/NCI, 2004)
# Calls of active or inactive are those of the source.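 The calls were made as follows: active = compounds giving half or more protection of infected cells from virus-caused growth loss, again on retest; inactive = the rest.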
# Test system: CEM cells HIV-1 protection, formazan growth assay
# Assay: NCI AIDS Antiviral Assay
# Conditions: for IC50: measured here: growth of uninfected CEM cells
# Summary of the method: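 Protection of CEM cells against HIV-1 was scored from cell growth (soluble formazan) across five concentrations, with parallel uninfected cells. Lack of protection may reflect toxicity.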
Structure (SMILES),EC50 [µM],IC50 [µM],outcome
O=C(O)C1CC(C2CCCCN2)CN2CCCCC12 (centres undefined),> 200,> 200,
CC[C@@H]1NC(C(=O)OC)Cc2c1[nH]c1ccccc21 (some centres undefined),,,inactive
NS(=O)(=O)c1ccc(Nc2c3ccccc3nc3c(C(=O)NCCCN(CCO)CCO)cccc23)cc1,> 200,9.33,
CC(=O)C(CN(C)Cc1ccccc1)C(c1ccccc1)c1c(O)c2ccccc2oc1=O (centres undefined),> 38.9,> 38.9,
COc1cc(NC(C)=O)c2[nH]c3c(C)cc(NC(C)=O)c(C)c3c2c1,,,inactive
CCOC(=O)c1ccc(CSc2ccc(Cl)cc2)c([N+](=O)[O-])c1,> 102,> 102,
O=C1CC(c2cccc(Cl)c2)n2cccc21 (centres undefined),> 200,93.3,
Cc1ccc(C)c(COCCOCn2c(=O)[nH]c(=O)c3cc(Br)ccc32)c1,> 200,> 200,
COc1ccc(/C=C/c2nc(=S)[nH][nH]2)cc1OC,> 135,110,
Nc1cc(N)c(N)cc1N,> 200,38,
CC=C(c1cc(Br)c(OC)c(C(=O)OC)c1)c1cc(Br)c(OC)c(C(=O)OC)c1,> 200,13.5,
COc1ccc(CN(Cc2ccc(OC)cc2)C(=O)CC2(O)C=CCC2)cc1 (centres undefined),> 200,75.9,
CCCNC(=O)N(CCC)S(=O)(=O)c1ccc(Cl)cc1,,,inactive
COc1cc2c(cc1OC)C(C1CC1)ON(C)CC2 (centres undefined),158,> 200,
Cc1ccc(C(=O)NCCCl)cc1C,,,inactive
O=C1C=C(c2c(O)ccc3ccccc23)c2ccccc2C1=O,,,inactive
CC1(C)C(=NO)C(C)(C)C1=NO,,,inactive
NC1C2CN3CCC(O2)C13 (centres undefined),,,inactive
O=S(=O)(c1ccc(O)cc1)c1ccc(I)cc1,> 200,64.6,
CC(C)(C)Nc1noc(=O)n1C(C)(C)C,> 100,> 100,
O=C(c1ccc(Cl)cc1)N(C(=S)N1CCN(c2ccccc2)CC1)C1CCCCC1,> 6.17,> 6.17,
c1ccc(C2(c3cc4ccccc4[nH]3)OCCO2)nc1,> 200,> 200,
CCOC(=O)c1ccc(CS(=O)(=O)c2ccc(N)cc2)c([N+](=O)[O-])c1,> 100,> 100,

Structure (SMILES),EC50 [µM],IC50 [µM],outcome
CO[C@H](C(=O)O[C@H]1C(=O)N2CC[C@@H]3CCC[C@H]1C32C)c1ccccc1 (some centres undefined),> 724,437,
O=C1CCC2(c3ccc(Cl)cc3)Nc3ncncc3N12 (centres undefined),> 871,178,
CNc1ccc(/C=C2\C=Cc3ccccc32)cc1,> 200,> 200,
CC(C)OP(=O)(OC(C)C)C(=NCCN=C(NNc1ccccc1[N+](=O)[O-])P(=O)(OC(C)C)OC(C)C)NNc1ccccc1[N+](=O)[O-],> 13.8,> 13.8,
Cc1ccc(C=NC23CC4CC(CC(C4)C2)C3)cc1,> 257,> 257,
O=C1C2c3[nH]c4ccccc4c3C3CCC(c4ccccc4)CC3C2C(=O)N1c1ccccc1 (centres undefined),,,inactive
O=C(NC/C(Cl)=C/Cl)Nc1c2ccccc2nc2ccccc12,> 200,21.9,
CNC(=O)CNC(=O)CCC(=O)OC,> 200,> 200,
CC(=O)O[C@H]1CCC2[C@@H]3CCC4C(=O)c5oncc5C[C@]4(C)C3CC[C@@]21C (some centres undefined),,,inactive
Nc1nc2c(ncn2C2C=CC(CO)CC2)c(=O)[nH]1 (centres undefined),> 200,> 200,
COC(=O)C1=C2c3ccccc3-c3ccccc3C2(O)C(C(=O)OC)C1=O (centres undefined),> 1.45,> 1.45,
CSc1nc2c(c(=O)n1C)N=C(c1ccc([N+](=O)[O-])cc1)CC(c1ccccc1)N2 (centres undefined),> 200,155,
S=c1s[nH]c2c1CCC2,> 107,77.6,
CCOC(=O)C(NC(=O)OC(C)(C)C)C(=O)OCC,> 200,> 200,
OCc1ccc2c(c1)CC1(Cc3ccc(/C=N/O)cc3C1)C2 (centres undefined),> 200,0.891,
C/C=C/C=C\C=C/C(O)CC(OP(=O)(O)O)C(C)(O)/C=C/C1CC=CC(=O)O1 (centres undefined),> 575,33.1,
CC1(C)CCc2cc3c(cc2O1)OC(C)(C)C1c2cc(O)c(OCc4ccccc4)cc2OC31 (centres undefined),> 200,61.7,
COc1cc([C@@H]2OC(=O)C3C2C(=O)O[C@H]3c2ccc(O)c(OC)c2)ccc1O (some centres undefined),,,inactive
C=CCOc1ccc(C2c3c([nH][nH]c3=O)CC(O)(OCC)C2C(=O)OCC)cc1OC (centres undefined),> 200,> 200,
Brc1ccc(N2N=NC3C4CC(C5CCCC54)C32)cc1 (centres undefined),> 5.62,> 5.62,
CCN(CC)c1ccc(N=Cc2cc(=O)n(C)c3ccccc23)cc1,> 200,3.72,
CCCCCCCCCCCCCCCCCC(=O)NCCCNCCCNC(=O)CCCCCCCCCCCCCCCCC,> 12.6,> 12.6,
Nc1ccc(C2=N/C(=C\c3cccc(N)c3)C(=O)O2)cc1,,,inactive

Structure (SMILES),EC50 [µM],IC50 [µM],outcome
CCNCCNC(=O)c1ccc(Br)cc1,,,inactive
Cc1nc2ccccc2c(=O)n1NC(=O)Cc1ccccc1,> 200,> 200,
CCOC(=O)c1ccc(-c2ccc(Cl)cc2)[nH]1,> 200,44.7,
Cc1ccc(C)c(COCCOCn2cc(Br)c(N)nc2=O)c1,> 200,> 200,
CCCN(CCC)C(=S)N/N=C/c1ccccn1,> 2,0.0126,
O=C1/C(=C/c2cccc([N+](=O)[O-])c2)Sc2scc(-c3ccc([N+](=O)[O-])cc3)[n+]21,> 200,38,
O=C1c2ccccc2-n2c1nc1ccccc1c2=O,> 200,52.5,
O=C(NC1C=Nc2ccc(Cl)cc2NC1=O)c1ccccc1Cl (centres undefined),> 200,123,
CCOC(=O)c1cc(-n2nnc3ccccc32)cn1C,> 200,46.8,
C/C(CCn1[nH]c(=O)ccc1=O)=N\OCCCc1ccccc1,> 417,> 417,
CC(=O)NCCSSCc1ccccc1CS(=O)O,> 200,105,
CCS[C@@H]([C@@H](COC(C)=O)OC(C)=O)[S@](=O)CC,> 200,26.3,
CCCCc1ccc(N2C(=O)c3cc(C)cnc3S2(=O)=O)cc1,> 200,> 200,
COC1=CC(O)(CC(N)=O)c2ccccc2C1=O (centres undefined),> 1000,> 1000,
CC(C)(C)COC1C2(OCCO2)C2CCC1(C)C2(C)C (centres undefined),> 200,> 200,
Cc1ccc(NC(=S)N/C=C(\c2ccccc2)S(=O)Cc2ccccc2)c(C)c1 (centres undefined),> 200,93.3,
COc1cccc(C2CCCC(C#N)C2=N)c1OC (centres undefined),> 200,126,
COc1ccc2[nH]c3c(C)c4ccnc(NCCCN(C)CCCNC(=O)NCCCN(C)CCCNc5nccc6c(C)c7[nH]c8ccc(OC)cc8c7c(C)c56)c4c(C)c3c2c1,> 5.01,0.891,
C=CC(C)(C)N[C@@H](C(=O)N1CCC[C@H]1c1nc(-c2nc(C(=O)OCC=C(C)C)c(C)o2)c(C)o1)C(C)C,> 200,58.9,
CC(=O)N1N=C(c2ccc3ccccc3c2O)CC1C(=O)c1ccco1 (centres undefined),> 200,23.4,
COC1=C(C)C(=O)C(=O)c2ccc(C)nc21,,,inactive
C[N+](C)(C)CCCC#CC[N+]1(C)CCOCC1,,,inactive
COc1ccc2c(c1)c(=O)c1c(NCCNCCO)ccc3c(=O)n(CCN(C)C)c(=O)n2c31,> 0.0427,0.0339,

Structure (SMILES),EC50 [µM],IC50 [µM],outcome
COC(=O)C1C(=O)C(C(=O)OC)C2(C)C(C(=O)OC)C(=O)C(C(=O)OC)C12C (centres undefined),> 89.1,81.3,
Nc1ncnc2c1ncn2C1C=CC(=O)CC1 (centres undefined),> 31.6,5.62,
O=C(O)c1ccc(Nc2nc3ccccc3nc2C(=O)O)cc1,> 200,> 200,
NC(=S)N/N=C(\C(=O)Nc1cccc([N+](=O)[O-])c1)c1nc2ccc([N+](=O)[O-])cc2[nH]c1=O,> 288,95.5,
COc1cc2oc(-c3ccccc3)cc(=O)c2c(O)c1C,> 33.1,> 33.1,
NCC1OC(OC2C(CO)OC(OC3C(O)C(N)CC(N)C3OC3OC(CO)C(O)C(O)C3N)C2O)C(N)C(O)C1O (centres undefined),,,inactive
O=C1CC(=O)N(CCc2ccccc2)S(=O)(=O)N1CCc1ccccc1,> 200,35.5,
COc1cc(CSc2ccc(O)cc2)cc(OC)c1OC,> 200,33.1,
CC12C(=O)CC(CC1=O)C2(C)C,> 200,> 200,
Cc1cc2c(C(C)C)c(O)c(O)c(C=Nc3cccc(C(F)(F)F)c3)c2c(O)c1-c1c(C)cc2c(C(C)C)c(O)c(O)c(C=Nc3cccc(C(F)(F)F)c3)c2c1O,,,inactive
CCCCCCCCCCOc1cc2c(=O)c(C(=O)OCC)c[nH]c2cc1OCC,> 200,> 200,
O=C(O)CCC(=O)c1ccc2oc3ccccc3c2c1,> 200,> 200,
COc1ccc(S(=O)(=O)N/N=C\c2cc([N+](=O)[O-])cc(I)c2O)c(OC)c1OC,> 468,67.6,
CCCC(=O)Nc1c(I)cc(I)c(CC(CC)C(=O)O)c1I (centres undefined),> 200,> 200,
COc1cc2c(c(OC)c1OC)C(=O)C(Br)C2NC(=O)CCCCl (centres undefined),> 200,> 200,
COc1cc(=O)oc2c3c(ccc12)OC(C)(C)[C@H](OC(=O)C12CCC(C)(C(=O)O1)C2(C)C)[C@@H]3OC(=O)C12CCC(C)(C(=O)O1)C2(C)C (some centres undefined),0.257,51.3,
CCOC(=O)Nc1ccc2nc(Sc3ccc(C)cc3)sc2c1,> 20.9,1.23,
C#CN1C(=O)c2c(c(-c3ccccc3)c(-c3ccc(Oc4ccc(-c5c(-c6ccccc6)c6c(c(-c7ccccc7)c5-c5ccccc5)C(=O)N(C#C)C6=O)cc4)cc3)c(-c3ccccc3)c2-c2ccccc2)C1=O,> 10.2,> 10.2,
O=S(=O)(O)CC(O)CNC(CO)(CO)CO (centres undefined),> 200,> 200,
C1=NCCNCCNCCN=Cc2ccc(cc2)OCc2cccc(n2)COc2ccc1cc2,> 50.1,> 50.1,
O=C(c1ccccc1)c1ccc2cccc(O)c2n1,> 75.9,50.1,
